Data as given in paper PMC7722873 (Scientific Reports, 2020).
Like-named read-outs stand apart in the source and are kept apart here. No end group written: not given here.

How the values were obtained:
[1] = tested on: wild-type Trinidad Donkey (TrD) strain of VEEV; settings: cited from earlier work
[2] = tested on: VEEV TC-83 vaccine strain; settings: cited from earlier work
[3] = tested on: VEEV TC-83; type: cell-based, Venezuelan equine encephalitis virus
[4] = tested on: 84 human inflammatory cytokines and receptors; type: cell-based
[5] = tested on: VEEV TC-83; type: cell-based, Venezuelan equine encephalitis virus; remark: listed apart in the source
[6] = tested on: IFNγ, IL1α, IL1β, IL2, IL4, IL6, IL10, IL12p70, TNFα; type: cell-based, human
[7] = tested on: 84 human inflammatory cytokines and receptors; type: cell-based; remark: listed apart in the source
[8] = tested on: VEEV TC-83; type: cell-based, Venezuelan equine encephalitis virus; remark: listed apart in the source
[9] = tested on: IFNγ, IL1α, IL1β, IL2, IL4, IL6, IL10, IL12p70, TNFα; type: cell-based, human; remark: listed apart in the source
[10] = tested on: HMC3 cells; settings: 24 h
[11] = tested on: VEEV TrD strain; type: cell-based, Venezuelan equine encephalitis virus
[12] = tested on: EEEV (GA97 strain); type: cell-based, eastern equine encephalitis virus
[13] = tested on: RVFV (MP-12 strain); type: cell-based, Rift Valley fever virus
[14] = tested on: VEEV TC-83; type: cell-based, Venezuelan equine encephalitis virus; remark: listed apart in the source
[15] = tested on: VEEV TrD strain; type: cell-based, Venezuelan equine encephalitis virus; remark: listed apart in the source
[16] = tested on: VEEV TC-83; type: cell-based, Venezuelan equine encephalitis virus; remark: listed apart in the source
[17] = tested on: VEEV TC-83; type: cell-based, Venezuelan equine encephalitis virus; remark: listed apart in the source

LL-37 (LLGDFFRKSKEKIGKEFKRIVQRIKDFLRNLVPRTES; Antibacterial peptide LL-37; UniProt P49913 134-170, looked up)
inhibition of viral titers [1]: ~1,000 fold
inhibition of viral titers [2]: approximately 100 fold

FQVVKFRFWVWWFRWR [G8]
VEEV TC-83 titer inhibition [3]: comparable to a known inhibitor, bortezomib

FQAVKFRFWVWWFRWR-NH2 [A3]
Fold Regulation, CCL13 [4]: 2.44
Fold Regulation, CCL16 [4]: 3.4
Fold Regulation, CCL22 [4]: 3.4
Fold Regulation, CX3CR1 [4]: 2.38
Fold Regulation, CXCL9 [4]: 3.12
Fold Regulation, FASLG [4]: 2.15
Fold Regulation, IL9R [4]: 2.56
Fold Regulation, IL33 [4]: 3.21
genes above/below a twofold regulation change [4]: 30 genes
genes down-regulated (twofold) [4]: 2 genes
genes upregulated (twofold) [4]: 28 genes
inhibition of VEEV attachment (amount of viral RNA entering cells) [5]: tenfold
secretion of cytokines from TC-83 infected cells [6]: inhibit secretion of cytokines
Fold Regulation, C5 [7]: -4.7
Fold Regulation, CCL1 [7]: -3.46
Fold Regulation, CCL3 [7]: -6.01
Fold Regulation, CCL4 [7]: -10.37
Fold Regulation, CCL5 [7]: -2.56
Fold Regulation, CCL17 [7]: -2.48
Fold Regulation, CCL20 [7]: -2.88
Fold Regulation, CCL26 [7]: -2.76
Fold Regulation, CCR1 [7]: -2.01
Fold Regulation, CCR8 [7]: -2.56
Fold Regulation, CD40LG [7]: -13.61
Fold Regulation, CSF1 [7]: -2.16
Fold Regulation, CSF2 [7]: -6.65
Fold Regulation, CSF3 [7]: -2.47
Fold Regulation, CX3CL1 [7]: -40.25
Fold Regulation, CXCL2 [7]: -2.14
Fold Regulation, CXCL3 [7]: -7.92
Fold Regulation, CXCL5 [7]: -2.3
Fold Regulation, CXCL8 [7]: -3.42
Fold Regulation, CXCL10 [7]: -2.5
Fold Regulation, CXCL12 [7]: -2.21
Fold Regulation, CXCL13 [7]: -2.43
Fold Regulation, IL1A [7]: -75.02
Fold Regulation, IL1B [7]: -3.92
Fold Regulation, IL1R1 [7]: -2.45
Fold Regulation, IL5 [7]: -4.29
Fold Regulation, IL5RA [7]: -6.83
Fold Regulation, IL10RA [7]: -2.36
Fold Regulation, IL10RB [7]: -3.04
Fold Regulation, IL15 [7]: -2.18
Fold Regulation, IL16 [7]: -2.19
Fold Regulation, IL17F [7]: -17.44
Fold Regulation, IL27 [7]: -3.21
Fold Regulation, LTB [7]: -2.77
Fold Regulation, OSM [7]: -11.73
Fold Regulation, RPLP0 [7]: -2.15
Fold Regulation, TNF [7]: -30.83
Fold Regulation, TNFRSF11B [7]: -3.73
Fold Regulation, TNFSF10 [7]: -3.34
Fold Regulation, TNFSF13B [7]: -4.76
genes down regulated (twofold) [7]: 60 genes
decrease in TC-83 infectious titers [8]: ~ 100 fold
production of cytokines, pro-inflammatory and anti-inflammatory, from uninfected cells [9]: decreased the production of cytokines
CC50 [10]: greater than 250 µg/mL
decrease of TrD titers [11]: about 100 fold
inhibition of replication of EEEV [12]: higher than tenfold
lower levels of EEEV replication, pre-treated cells [12]: ~ 4.5 fold
inhibition of replication of RVFV [13]: less than tenfold
decrease in extracellular genomic TC-83 RNA copy numbers [14]: more than 50%
decrease in intracellular genomic TC-83 RNA copy numbers [14]: more than 50%
TrD inhibitory response, pre-treatment relative to no pre-treatment [15]: tenfold
decrease of TrD titers [15]: about 100 fold
genomic TC-83 RNA copy numbers (intracellular and extracellular) [16]: reduced

FAVVKFRFWVWWFRWR-NH2 [A2]
Fold Regulation, CCL2 [4]: -2.07
genes above/below a twofold regulation change [4]: eight
inhibition of VEEV attachment (amount of viral RNA entering cells) [5]: inhibited VEEV attachment to cells
secretion of cytokines from TC-83 infected cells [6]: inhibit secretion of cytokines
Fold Regulation, AIMP1 [7]: -2.17
Fold Regulation, B2M [7]: -2.51
Fold Regulation, C5 [7]: -3.11
Fold Regulation, CCL1 [7]: -2.21
Fold Regulation, CCL3 [7]: -11.1
Fold Regulation, CCL4 [7]: -12.54
Fold Regulation, CCL7 [7]: -3.26
Fold Regulation, CCL8 [7]: -6.18
Fold Regulation, CCL13 [7]: -2.73
Fold Regulation, CCL17 [7]: -2.71
Fold Regulation, CCL20 [7]: -2.91
Fold Regulation, CCL23 [7]: -2.03
Fold Regulation, CCL24 [7]: -2.6
Fold Regulation, CCL26 [7]: -2.44
Fold Regulation, CCR1 [7]: -2.78
Fold Regulation, CCR2 [7]: -7.36
Fold Regulation, CCR3 [7]: -2.71
Fold Regulation, CCR5 [7]: -3.23
Fold Regulation, CCR6 [7]: -5.15
Fold Regulation, CCR8 [7]: -2.77
Fold Regulation, CD40LG [7]: -8.44
Fold Regulation, CSF1 [7]: -2.23
Fold Regulation, CSF2 [7]: -7.67
Fold Regulation, CSF3 [7]: -8.01
Fold Regulation, CXCL1 [7]: -2.79
Fold Regulation, CXCL2 [7]: -2.97
Fold Regulation, CXCL3 [7]: -8.92
Fold Regulation, CXCL5 [7]: -3.43
Fold Regulation, CXCL6 [7]: -3.46
Fold Regulation, CXCL8 [7]: -4.74
Fold Regulation, CXCL9 [7]: -2.67
Fold Regulation, CXCR1 [7]: -4.9
Fold Regulation, CXCR2 [7]: -2.22
Fold Regulation, FASLG [7]: -2.27
Fold Regulation, HPRT1 [7]: -2.53
Fold Regulation, IFNA2 [7]: -4.07
Fold Regulation, IL1A [7]: -40.4
Fold Regulation, IL1B [7]: -4.37
Fold Regulation, IL1R1 [7]: -2.63
Fold Regulation, IL1RN [7]: 2.19
Fold Regulation, IL3 [7]: -2.76
Fold Regulation, IL5 [7]: -5.46
Fold Regulation, IL5RA [7]: -4.55
Fold Regulation, IL7 [7]: 9.88
Fold Regulation, IL9 [7]: -3.51
Fold Regulation, IL9R [7]: -2.48
Fold Regulation, IL10RA [7]: -3.22
Fold Regulation, IL10RB [7]: -2.31
Fold Regulation, IL13 [7]: -4.71
Fold Regulation, IL15 [7]: -2.47
Fold Regulation, IL16 [7]: -2.42
Fold Regulation, IL17A [7]: -10.02
Fold Regulation, IL17F [7]: -13.11
Fold Regulation, IL21 [7]: -2.43
Fold Regulation, IL27 [7]: -2.99
Fold Regulation, LTA [7]: -4.72
Fold Regulation, LTB [7]: -3.31
Fold Regulation, NAMPT [7]: -2.42
Fold Regulation, OSM [7]: -9.67
Fold Regulation, RPLP0 [7]: -2.88
Fold Regulation, SPP1 [7]: -2.4
Fold Regulation, TNF [7]: -9.95
Fold Regulation, TNFRSF11B [7]: -4.24
Fold Regulation, TNFSF4 [7]: -2.68
Fold Regulation, TNFSF10 [7]: -2.78
Fold Regulation, TNFSF11 [7]: -4.37
Fold Regulation, TNFSF13 [7]: -6.12
Fold Regulation, TNFSF13B [7]: -3.19
genes down regulated (twofold) [7]: 67 genes
genes out of 84 with greater than twofold change in regulation [7]: 71 genes
genes upregulated (greater than twofold) [7]: 4 genes
decrease in TC-83 infectious titers [8]: ~ 1,000 fold
production of cytokines, pro-inflammatory and anti-inflammatory, from uninfected cells [9]: decreased the production of cytokines
CC50 [10]: greater than 250 µg/mL
decrease of TrD titers [11]: about 100 fold
inhibition of replication of EEEV [12]: higher than tenfold
lower levels of EEEV replication, pre-treated cells [12]: ~ 4.5 fold
inhibition of replication of RVFV [13]: less than tenfold
decrease in extracellular genomic TC-83 RNA copy numbers [14]: more than 50%
decrease in intracellular genomic TC-83 RNA copy numbers [14]: more than 50%
TrD titer inhibition, cells treated at infection relative to pre-treated cells [15]: tenfold
decrease of TrD titers [15]: about 100 fold
genomic TC-83 RNA copy numbers (intracellular and extracellular) [16]: reduced

ILPWKWPWWPWRR-NH2 [Indolicidin, indolicidin]
antiviral activity against VEEV [17]: no antiviral activity
